According to US12594268B2, “Methods of treating Fabry disease in patients having a mutation in the GLA gene” (Amicus Therapeutics, Inc., priority 2018, dated 2026):
Numbering of substitutions follows the chain as printed.

How the values were obtained:
Type in all cases: cell-based
α-Gal A mutant form D33H = molecular target: T1, α-Gal A mutant form D33H (Homo sapiens, UniProt P06280, D33H); experiment: α-Gal A activity in lysates of transfected HEK-293 cells, D33H
T1 construct: expressed in transfected cells; host or cells: HEK-293
T1 sequence (P06280 32-429 D33H): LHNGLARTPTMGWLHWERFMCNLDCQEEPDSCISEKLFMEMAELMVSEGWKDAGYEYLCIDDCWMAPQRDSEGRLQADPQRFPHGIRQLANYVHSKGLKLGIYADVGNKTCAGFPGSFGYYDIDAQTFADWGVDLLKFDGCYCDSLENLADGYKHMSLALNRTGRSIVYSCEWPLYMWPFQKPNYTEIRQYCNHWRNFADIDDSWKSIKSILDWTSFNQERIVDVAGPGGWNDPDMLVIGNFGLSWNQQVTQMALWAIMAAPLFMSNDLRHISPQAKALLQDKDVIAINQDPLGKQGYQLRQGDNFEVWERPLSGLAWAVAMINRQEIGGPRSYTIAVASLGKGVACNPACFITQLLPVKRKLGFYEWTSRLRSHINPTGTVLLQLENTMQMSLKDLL
Method: (§1) Baseline and 10 μM migalastat α-Gal A activity: Differences in the α-Gal A activity between lysates incubated in the absence and presence of 10 μM migalastat were determined using a one-tailed, Mann Whitney U test; an increase at 10 μM migalastat with a p<0.05 was considered significant.
(§2) 10 μM migalastat α-Gal A activity (% WT)=(α-Gal A activity in mutant transfected cell lysates incubated with 10 μM migalastat÷α-Gal A activity in wild-type transfected cell lysates without migalastat)*100.
(§3) Absolute increase (% WT)=is the 10 μM migalastat α-Gal A activity (% WT) minus the baseline α-Gal A activity (% WT).
(§4) Relative increase is the 10 μM migalastat α-Gal A activity in mutant transfected cell lysates÷baseline α-Gal A activity in mutant transfected cell lysates incubated without migalastat.

[1] = molecular target: T2, α-Gal A mutant form R392T (Homo sapiens, UniProt P06280, R392T); experiment: α-Gal A activity in lysates of transfected HEK-293 cells, R392T
T2 construct: expressed in transfected cells; host or cells: HEK-293
T2 sequence (P06280 32-429 R392T): T1 sequence (P06280 32-429 D33H) with H2D, R361T
Method: as §1, §2, §3, §4

α-Gal A mutant form N53K = molecular target: T3, α-Gal A mutant form N53K (Homo sapiens, UniProt P06280, N53K); experiment: α-Gal A activity in lysates of transfected HEK-293 cells, N53K
T3 construct: expressed in transfected cells; host or cells: HEK-293
T3 sequence (P06280 32-429 N53K): T1 sequence (P06280 32-429 D33H) with H2D, N22K
Method: as §1, §2, §3, §4

[2] = molecular target: T4, α-Gal A mutant form P380L (Homo sapiens, UniProt P06280, P380L); experiment: α-Gal A activity in lysates of transfected HEK-293 cells, P380L
T4 construct: expressed in transfected cells; host or cells: HEK-293
T4 sequence (P06280 32-429 P380L): T1 sequence (P06280 32-429 D33H) with H2D, P349L
Method: as §1, §2, §3, §4

[3] = molecular target: T5, α-Gal A mutant form T412P (Homo sapiens, UniProt P06280, T412P); experiment: α-Gal A activity in lysates of transfected HEK-293 cells, T412P
T5 construct: expressed in transfected cells; host or cells: HEK-293
T5 sequence (P06280 32-429 T412P): T1 sequence (P06280 32-429 D33H) with H2D, T381P
Method: as §1, §2, §3, §4

[4] = 10 μM migalastat minus baseline
[5] = 10 μM migalastat ÷ baseline activity
[6] = HEK-293 lysates, 10 nM migalastat as printed, 5 days, mean ± SEM
[7] = HEK-293 lysates, 10 μM migalastat, 5 days, mean ± SEM

Absolute increase (% WT) (α-Gal A mutant form D33H; [4]): 32.7 % WT | Relative increase (α-Gal A mutant form D33H; [5]): 1.93 | 10 nM migalastat α-Gal A activity (α-Gal A mutant form D33H; [6]): 24908 ± 1775 nmol/mg/h | 10 μM migalastat α-Gal A activity (% WT) (α-Gal A mutant form D33H; [7]): 68.8 ± 4.3 % WT | Absolute increase (% WT) [1, 4]: 21.3 % WT | Relative increase [1, 5]: 1.22 | 10 nM migalastat α-Gal A activity [1, 6]: 36679 ± 1896 nmol/mg/h | 10 μM migalastat α-Gal A activity (% WT) [1, 7]: 125.9 ± 6.2 % WT | Absolute increase (% WT) (α-Gal A mutant form N53K; [4]): 24.0 % WT | Relative increase (α-Gal A mutant form N53K; [5]): 2.70 | 10 μM migalastat α-Gal A activity (α-Gal A mutant form N53K; [7]): 13895 ± 1270 nmol/mg/h | 10 μM migalastat α-Gal A activity (% WT) (α-Gal A mutant form N53K; [7]): 38.6 ± 2.5 % WT | Absolute increase (% WT) [2, 4]: 7.1 % WT | Relative increase [2, 5]: 2.98 | 10 μM migalastat α-Gal A activity [2, 7]: 4248 ± 369 nmol/mg/h | 10 μM migalastat α-Gal A activity (% WT) [2, 7]: 10.6 ± 1.0 % WT | Absolute increase (% WT) [3, 4]: 16.9 % WT | Relative increase [3, 5]: 11.21 | 10 μM migalastat α-Gal A activity [3, 7]: 7159 ± 459 nmol/mg/h | 10 μM migalastat α-Gal A activity (% WT) [3, 7]: 18.6 ± 1.2 % WT
SMILES: OC[C@H]1NC[C@H](O)[C@@H](O)[C@H]1O [migalastat, (2R,3S,4R,5S)-2-(hydroxymethyl) piperdine-3,4,5-triol]
